Test results reported in patent publication US11684606B2, “Methods of treating generalized pustular psoriasis with an antagonist of CCR6 or CXCR2” (CHEMOCENTRYX, INC., priority 2018, dated 2023).

How the values were obtained:
[1] = tested on: IL-36α-injected ears of Balb/c mice; assay: Mouse model of IL-36-induced ear thickening (GPP model); format: in vivo; settings: intradermal IL36 mouse model (Example 1)
Method: (§1) For in vivo dosing, mice were dosed subcutaneously with Compound 1.136 once daily (s.c. q.d. in 1% HPMC) at 90 mg/kg unless stated otherwise, starting at day 0 of a study. The in vivo dose was predicted based on in vitro potency and the pharmacokinetic response to a single dose in mice. The minimum antagonist concentration (at trough) to fully cover a gradient-sensing chemoattractant receptor has been determined to correspond with the IC90 concentration (Schall, T. J., and A. E. Proudfoot. 2011. Overcoming hurdles in developing successful drugs targeting chemokine receptors. Nat Rev Immunol 11: 355-363).
Mouse model of IL-36-induced ear thickening. The right ear of 8-week old Balb/c mice received intradermal injections of recombinant murine IL-36α (150 μg per mouse formulated in PBS; BioLegend) every day for 5 days. Intradermal injections of PBS were given to the left ear as a control. Ear thickness was measured prior to start of study and each day thoughout the study using a digital micrometer. The imiquimod model of psoriasiform dermatitis was performed as previously described (Campbell Jet al. J Immunol. 2017; 199(9):3129-36. van der Fits et al. J Immunol 2009; 182(9):5836-45). Briefly, 5% Imiquimod (Fougera®) was applied daily to the shaved and depilated backs of Balb/c mice for up to 4 days. Control mice were treated with an application of Vaseline. Erythema, desquamation, and skin thickening were scored independently on a scale from 0 to 4 where 0=no disease; 1=slight disease; 2=moderate disease; 3=marked disease; 4=very marked disease (Campbell J et al. J Immunol. 2017; 199(9):3129-36. van der Fits et al. J Immunol 2009; 182(9):5836-45). Skin from the backs of mice was excised at the end of the study and processed for flow cytometry analysis,
Mouse anti-IL-17RA. (R&D Systems) was dosed as a positive control at 200-500 μg per mouse, i.p., q.d.

[2] = tested on: CD4 T cells, neutrophils and inflammatory dendritic cells within IL-36-treated skin; assay: Flow cytometry of leukocytes accumulating in IL-36-treated skin; format: in vivo, mouse; settings: intradermal IL36 mouse model (Example 1)
Method: as §1
Flow cytometry of leukocytes. Ears or excised skin samples were digested in collagenase A and 1 U/ml DNAse I with agitation for 30 min at 37° C. Cells were then dislodged from skin, filtered through a […] sieve, washed and re-suspended in FACS buffer (PBS with 10% FBS) for analysis.
Directly conjugated Monoclonal antibodies were from R&D Systems (Minneapolis, Minn.), BioLegend (San Diego, Calif.), or eBioscience/ThermoFisher (San Diego, Calif.). CD45.2 (104) in AlexaFluor488, Ly6C (HK1.4) in PE, CD90.2 (30-H12) in Per CP-Cy5.5, TCRVγ4 (UC3-10A6) in PE-Cy7, TCRβ (H57-597) in APC, CD4 (GK1.5) in APC-eFluor-780, TCRγδ (GL3) in BV-421, LIVE/DEAD fixable Aqua stain (Molecular Probes, Eugene, Oreg.), CD11c (N418) in BV650, Ly6G (1A4) in BV711 and CD11b (M1/70) in BV785. Flow cytometry data were acquired with a Fortessa (BD Biosciences) cytometer and analyzed using FlowJo v10.2

[3] = tested on: imiquimod-treated skin of Balb/c mice; settings: reported in a previous study; cited from earlier work

## CC(C)(C)[C@@H](Nc1c(Nc2ccc(Cl)c3c2C(=O)NC3)c(=O)c1=O)c1ccc(Cl)o1 [Compound 1.129]
[1]
  IL36-induced inflammation: reduces IL36-induced inflammation
[2]
  Accumulation of CD4+αβ T cell population in IL36-inflamed skin: preventing accumulation
[3]
  Inflammation in topical imiquimod-induced model of plaque psoriasis: ameliorates inflammation
